Measured values published in patent US20050070606A1, “Pharmaceutical agent for mitochondrial disorders” (Ajinomoto Co., Inc., priority 2002, published 2005).

Assays:
[1] = system: mitochondrial membrane potential; experiment: Assaying mitochondrial membrane potential (JC-1 fluorescence) in liver mitochondrial suspension; assay type: biochemical; conditions: rat liver mitochondria 2 μg; various concentrations of L-alanine; excitation 490 nm, emission 590 nm; FIG. 2
Protocol: A male SD (IGS) rat of age 8 weeks was killed by exsanguination under ether anesthesia and then the liver was resected and washed twice with 1×Extraction Buffer A (10 mM HEPES (2-[4-(2-hydroxyethyl)-1-piperazinyl]ethanesulfonic acid, pH 7.5, 200 mM mannitol, 70 mM sucrose, 1 mM EGTA (ethylene glycol bis(β-aminoethyl ether)-N, N,N,N-tetraacetic acid). The liver was subsequently cut into a piece of about 100 mg and weighed, which was then cut into smaller pieces in a 5-ml tube.
A 10-fold volume of 1×Extraction Buffer A (containing 2 mg/ml albumin) was added to the tube and the liver was homogenized at a low speed on ice (15 seconds). The resulting homogenate was transferred into an Eppendorf tube for centrifugation at 600 g at 4° C. for 5 minutes. The supernatant was transferred to a new tube for centrifugation at 11,000 g and 4° C. for 10 minutes. After the supernatant was discarded, the precipitate was suspended in a 10-fold volume of 1×Extraction Buffer A. The procedure from centrifugation at 600 g and 4° C. for 5 minutes to centrifugation at 11,000 g and 4° C. for 10 minutes was repeated. […]
The resulting suspension was defined as the mitochondrial suspension for the following experiments. […] For assaying fluorescence intensity (excitation at 490 nm; emission at 590 nm), 2 μl of JC-1 (1 μg/ml) was added and incubated at ambient temperature for 7 minutes.

[2] = system: mRNAs of the proteins involved in the TCA cycle of liver mitochondria and the ATP generation in the electron transfer system; experiment: Expression of the genes for mitochondrial ATP generation-associated proteins (Taqman-PCR) in liver of rats after partial 70% hepatectomy; assay type: in vivo, rat; conditions: male F344 rats after partial 70% hepatectomy; L-alanine 2 g/10 ml/kg orally 18 and 21 hours after hepatectomy; liver at 24 hours; compared with the non-administered group; FIG. 1
Protocol: Male F344/DvCrj (Fischer) rats (age 6 weeks and body weight of 120 g) were preliminarily fed with CRF-1 (Oriental Yeast) and water for 6 weeks. Subsequently, the rats were divided in two groups of equal body weight. According to the Higgins-Anderson method (see Higgins, G. M. and Anderson, R. M., 1931, Arch. Pathol. 12: 186-191), partial 70% hepatectomy (left lobe, intermediate lobe) was performed. 18 and 21 hours after the partial hepatectomy, L-alanine at 2 g/10 ml/kg body weight in aqueous 0.3% carboxymethyl cellulose solution was administered orally (group 1), while only the aqueous 0.3% carboxymethyl cellulose solution was administered to the control group (group 2). 24 hours after the partial hepatectomy, anatomy was performed. The rats were killed by exsanguination under anesthesia and then the liver was resected and weighed. Subsequently, the liver was frozen and stored for assaying mRNA expression by the Taqman-PCR method.
To homogenize the liver, 10 ml ISOGEN (Nippon Gene) was added per 1 g of rat liver. […]
The Taqman PCR reactions were performed in duplicate to calculate the cycle time (CT) exceeding the threshold. […] By the following formula, the relative expression level was determined: Relative expression level=2^(30-CT sample)
Further, the relative value of the expression level of each gene was determined when the relative expression level of β-actin was defined as 1000.

[3] = target: T1, COX (cytochrome C oxidase) (Rattus norvegicus, UniProt P00406+P05503); experiment: Assaying COX (cytochrome C oxidase) activity in liver mitochondrial suspension; assay type: biochemical; conditions: rat liver mitochondria 2.5 μg, reduced cytochrome c, FIG. 3
T1 construct: from tissue; host or cells: mitochondrial suspension (liver according to the earlier reading)
T1 sequence (P00406 whole entry, other chains not shown): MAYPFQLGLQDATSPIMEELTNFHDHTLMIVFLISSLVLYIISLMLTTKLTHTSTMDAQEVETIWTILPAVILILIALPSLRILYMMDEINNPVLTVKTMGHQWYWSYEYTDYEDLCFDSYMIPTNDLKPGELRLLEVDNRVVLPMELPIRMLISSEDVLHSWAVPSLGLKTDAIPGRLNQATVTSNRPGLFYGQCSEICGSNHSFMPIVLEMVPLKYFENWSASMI
Protocol: As described in Example 2, a mitochondrial suspension was prepared and adjusted to 0.1 mg/ml. 25 μl (2.5 μg) of mitochondria was blended with 950 μl of an assay buffer (10 mM Tris-HCl, pH 7.0, 120 mM KCl), to which various concentrations of L-alanine were added. 50 μl of cytochrome c (0.22 mM) reduced with 10 mg/ml sodium hydroxysulfite was added, and the resulting mixture was inversed and mixed together to start reaction. Immediately, the absorbance (550 nm) was counted continuously for one minute with a spectrophotometer, to record the decrease of the absorbance.

## C[C@H](N)C(=O)O [L-alanine]
[1]
  fluorescence intensity of JC-1 (mitochondrial membrane potential): increased in an L-alanine concentration-dependent manner
[2]
  mRNAs of the proteins involved in the TCA cycle of liver mitochondria and the ATP generation in the electron transfer system: significantly increased
[3]; absorbance at 550 nm
  concentration from which COX activity was increased: ≥ 2.5 mM
[3]; decrease of absorbance at 550 nm for one minute, various concentrations of L-alanine
  COX activity: increased the COX activity in a concentration-dependent manner
